Source: patent US11434205B2, “Substituted imidazole carboxylate derivatives and the use thereof” (priority 2018, dated 2022)
Read-outs that look alike come from different tables or passages of the source.

What was measured:
[1] = tested on: rats; assay: Pharmacological characteristics at equivalent doses (2×ED50) in rats; details: 2×ED50, tail vein; for Adverse reactions: Red urine (incidence): DMSO solution (DMSO alone 10/10); for Onset time: time of LORR; for Adverse reactions: Tremor (incidence): animals affected/animals
In short: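 Anesthesia onset, recorded as time of LORR, was measured after a 2×ED50 tail-vein injection (0.6 mL, 0.1 mL/s). Animals were male Sprague-Dawley rats of 250-300 g, n=8.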

[2] = tested on: rats
Method: Adult male Sprague-Dawley rats (250-300 g) were selected for the experiment. […] The anesthesia effects of the compounds were assessed in rats using a LORR assay and a period >30 s was considered as an indicator of general anesthesia. Then the up and down method was used to determine 50% effective dose (ED50). The drugs were administered through the tail vein of rats in a volume of 0.6 mL and at a rate of 0.1 mL/s.

[3] = tested on: secretion of corticosterone, H295R cell line; assay: cells; type: cell-based; details: for EC50: read-out: EC50 (Corticosterone)
Method: (§1) The Effects of the Compounds on Adrenocortical Function In Vitro Test
(§2) Then secretion of the cortisol and corticosterone in the supernatant, was measured using HPLC-MS/MS method to determine whether the compounds of the present invention had adrenotoxic potential.

[4] = tested on: secretion of cortisol, H295R cell line; assay: cells; type: cell-based; details: for EC50: read-out: EC50 (Cortisol)
Method: as §1, §2

[5] = tested on: rats; assay: Loss of righting reflexes (LORR) assay in rats, ED50 by up and down method; type: in vivo, rat; details: Rattus norvegicus, tail vein
In short: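 ED50 obtained by up-and-down dosing, with righting-reflex loss over 30 s counted as general anesthesia. Compounds injected into the tail vein (0.1 mL/s) of male Sprague-Dawley rats weighing 250-300 g.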

[6] = tested on: rats; type: in vivo, rat; details: for recovery time of the test animals' righting reflex: rats of the MAP/HR figures, 2×ED50, tail vein, same value in min
In short: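 Hemodynamic stability judged from mean arterial pressure and heart rate, recorded at 15 s intervals over 30 min pre- and post-dose. Dosing was through a tail-vein indwelling catheter in rats carrying implanted aortic/ventricular catheters and ECG wires, operated ≥1 week earlier.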

[7] = tested on: rats; type: in vivo, rat; details: rats of the MAP/HR figures, 2×ED50, tail vein
[8] = tested on: rats; remark: listed apart in the source
Method: Pharmacological Effects of the Compounds on Continuous Infusion in Rats
Adult male Sprague-Dawley rats with body weight ranging from 250 to 300 gm were selected for continuous infusion test. […] Time to recovery of righting reflex from stopping infusion, and time to fully awake from stopping infusion were recorded.

[9] = emulsion, continuous infusion at 2×MIR
[10] = H295R cell line, 0.1-10000 nM, HPLC-MS/MS, Table D3
[11] = continuous tail vein infusion at 2×MIR, LORR maintained 1 hour, Table E4
[12] = H295R cell line, 0.1-10000 nM, HPLC-MS/MS, Table E3
[13] = continuous tail vein infusion at 2×MIR, LORR maintained 1 hour, Table C4
[14] = continuous tail vein infusion at 2×MIR, LORR maintained 1 hour, Table D4

SMILES	Righting reflex duration [1] [min]	Adverse reactions: Red urine (incidence) [1]	Onset time [1] [min]	Approximate therapeutic index [2]	Minimal lethal dose [2] [mg/kg]	Corticosterone as an indicator to determine the presence of inhibition ([3]; H295R, Table A3)	EC50 ([3]; Homo sapiens, NCI-H295R) [µM]	Cortisol as an indicator to determine the presence of inhibition ([4]; H295R, Table A3)	EC50 ([4]; Homo sapiens, NCI-H295R) [µM]	ED50 ([5]; class symbols) [mg/kg]	recovery time of the test animals' righting reflex [6] [min]	recovery time of the test animals' righting reflex [7] [s]	Recovery time after stopping infusion ([8]; after 1 hour infusion at 2×MIR) [min]	Adverse reactions: Tremor (incidence) ([8]; continuous infusion 2×MIR)	Onset time [8, 9] [min]	Onset time [8, 11] [min]	Recovery time after stopping infusion [8, 11] [min]	further results
C[C@H](c1ccccc1)n1cncc1C(=O)OCC1CCC1 [Compound A8]	2.25 ± 2.64	Red urine (8/8)	0.34 ± 0.21	>10	>2	0	> 1	0	> 1	0.1 to 0.5	2.15	129	9 to 14	Tremor (1/6)	3 to 4	–	–	–
COCC1(COC(=O)c2cncn2[C@H](C)c2ccccc2)CCC1 [Compound A11]	3.81 ± 1.49	Red urine (8/8)	0.21 ± 0.10	>12	>1	0	> 10	0	> 10	0.01 to 0.1	3.75	225	14 to 18	Tremor (5/6)	3 to 4	–	–	–
CC(OC(=O)c1cncn1[C@H](C)c1ccccc1)C1CO1 (stereo partly shown) [Compound B20]	2.59 ± 0.99	Red urine (8/8)	0.28 ± 0.14	>10	>17	–	> 1	–	> 1	0.5 to 1	2.68	161	–	–	–	–	–	Corticosterone as an indicator to determine the presence of inhibition ([3]; H295R, Table B3): 0; Cortisol as an indicator to determine the presence of inhibition ([4]; H295R, Table B3): 0
CC#CC1(OC(=O)c2cncn2[C@H](C)c2ccccc2)COC1 [Compound D39]	1.11 ± 0.34	urine (8/8)	0.20 ± 0.05	>15	>9	–	> 1	–	> 1	0.5 to 1	6.25	375	–	–	–	–	–	Adverse reactions: Hindlimb rigidity (incidence) [1]: Hindlimb rigidity (1/8),; Adverse reactions: Myoclonus (incidence) [1]: Myoclonus (1/8), Red; Corticosterone as an indicator to determine the presence of inhibition [3, 10]: 0; Cortisol as an indicator to determine the presence of inhibition [4, 10]: 0
C[C@H](c1ccccc1)n1c(Cl)nc(Cl)c1C(=O)OC1CSC1 [Compound E133]	2.10 ± 0.86	urine (8/8)	0.25 ± 0.10	>12	>10	–	–	–	–	0.5 to 1	2.30	138	–	–	–	3 to 4	9 to 12	Adverse reactions: Tremor (incidence) [1]: (4/8), Red; Types and incidence of adverse reactions [8, 11]: Tremor (4/6)
C#CC1(OC(=O)c2c(Cl)nc(Cl)n2[C@H](C)c2ccccc2)COC1 [Compound E148]	0.49 ± 0.38	urine (8/8)	0.75 ± 0.24	>12	>10	–	–	–	–	0.5 to 1	0.97	58	–	–	–	3 to 4	11 to 16	Adverse reactions: Tremor (incidence) [1]: (5/8), Red; Types and incidence of adverse reactions [8, 11]: Myoclonus (2/6), Tremor (3/6)
CCOC(=O)c1cncn1[C@H](C)c1ccccc1 [Etomidate, ethyl R-(+)-1-(1-phenylethyl)-1H-imidazol-5-carboxylate, reference compound]	–	–	–	–	12.75	2	> 0.01	2	> 0.001	–	7.33	440	25 to 30	6/6	4 to 5	4 to 5	25 to 30	Corticosterone as an indicator to determine the presence of inhibition [3, 10]: 2; Corticosterone as an indicator to determine the presence of inhibition [3, 12]: 2; Corticosterone as an indicator to determine the presence of inhibition ([3]; H295R, Table B3): 2; Corticosterone as an indicator to determine the presence of inhibition ([3]; H295R, Table C3): 2; EC50 [3, 10]: > 0.01 µM; EC50 [3, 12]: > 0.01 µM; Cortisol as an indicator to determine the presence of inhibition [4, 10]: 2; Cortisol as an indicator to determine the presence of inhibition [4, 12]: 2; Cortisol as an indicator to determine the presence of inhibition ([4]; H295R, Table B3): 2; Cortisol as an indicator to determine the presence of inhibition ([4]; H295R, Table C3): 2; EC50 [4, 10]: > 0.001 µM; EC50 [4, 12]: > 0.001 µM; ED50 ([5]; brackets = 95% confidence limit): 0.75 mg/kg; effect on the circulatory function (MAP, HR) ([6]; rats, 2×ED50, 30 min after administration): almost no inhibitory effect on the circulatory function; Adverse reactions: Facial muscle twitching (incidence) ([8]; continuous infusion 2×MIR): twitching (4/6), Tongue stretching; Adverse reactions: Tongue stretching (incidence) ([8]; continuous infusion 2×MIR): (5/6); Onset time [8, 13]: 4 to 5 min; Recovery time after stopping infusion [8, 13]: 25 to 30 min; Onset time [8, 14]: 4 to 5 min; Recovery time after stopping infusion [8, 14]: 25 to 30 min
